# Reference: patent US20070219234A1, “Thienopyridine Derivatives” (priority 2004, published 2007)
row,Structure (SMILES),melting point
1,Cl.Cl.NC(=O)c1sc2nccc(N3CCCNCC3)c2c1N,> 295 °C
2,Cl.Cl.NC(=O)c1sc2nccc(N3CCNCC3)c2c1N,270 to 280 °C
3,"CCN(CC)c1ccnc2sc(C(N)=O)c(N)c12 [Example 2, 3-amino-4-(diethylamino)thieno[2,3-b]pyridine-2-carboxamide]",127 to 129 °C
4,"Cc1cc(N(C)C)c2c(N)c(C(N)=O)sc2n1 [Example 3, 3-amino-4-(dimethylamino)-6-methylthieno[2,3-b]pyridine-2-carboxamide]",167 to 170 °C
5,"CC(C)CNc1ccnc2sc(C(N)=O)c(N)c12 [Example 5, 3-amino-4-(isobutylamino)thieno[2,3-b]pyridine-2-carboxamide]",117 to 119 °C
6,"NC(=O)c1sc2nccc(NCc3ccccc3)c2c1N [Example 7, 3-amino-4-(benzylamino)thieno[2,3-b]pyridine-2-carboxamide]",260 to 262 °C
7,"NC(=O)c1sc2nccc(NC3CCCCCC3)c2c1N [Example 12, 3-amino-4-(cycloheptylamino)thieno[2,3-b]pyridine-2-carboxamide]",206 to 208 °C
8,"NC(=O)c1sc2nccc(N3CCCC3)c2c1N [Example 13, 3-amino-4-pyrrolidin-1-ylthieno[2,3-b]pyridine-2-carboxamide]",275 to 283 °C
9,"CC1CCN(c2ccnc3sc(C(N)=O)c(N)c23)CC1 [Example 15, 3-amino-4-(4-methylpiperidin-1-yl)thieno[2,3-b]pyridine-2-carboxamide]",252 to 254 °C
10,"CC(=O)OC1CCN(c2ccnc3sc(C(N)=O)c(N)c23)CC1 [Example 20, 3-amino-4-(4-acetoxypiperidin-1-yl)thieno[2,3-b]pyridine-2-carboxamide]",231 to 235 °C
11,"NC(=O)c1sc2nccc(N3CC=C(c4ccccc4)CC3)c2c1N [Example 21, 3-amino-4-(4-phenyl-3,6-dihydropyridin-1(2H)-yl)thieno[2,3-b]pyridine-2-carboxamide]",235 °C (dec.)
12,"NC(=O)c1sc2nccc(N3CCOCC3)c2c1N [Example 22, 3-amino-4-morpholin-4-ylthieno[2,3-b]pyridine-2-carboxamide]",232 to 234 °C
13,"C[C@@H]1CN(c2ccnc3sc(C(N)=O)c(N)c23)C[C@H](C)O1 [Example 23, 3-amino-4-(cis-2,6-dimethylmorpholin-4-yl)thieno[2,3-b]pyridine-2-carboxamide]",242 to 244 °C
14,"NC(=O)c1sc2nccc(N3CCc4ccccc4C3)c2c1N [Example 27, 3-amino-4-(3,4-dihydroisoquinoline-2(1H)-yl)thieno[2,3-b]pyridine-2-carboxamide]",244 to 245 °C
15,"NC(=O)c1sc2nccc(N3CC[S+]([O-])CC3)c2c1N [Example 32, 3-amino-4-(1-oxothiomorpholine-4-yl)thieno[2,3-b]pyridine-2-carboxamide]",165 to 172 °C
16,"NC(=O)c1sc2nccc(N3CCCSCC3)c2c1N [Example 33, 3-amino-4-(1,4-thiazepan-4-yl)thieno[2,3-b]pyridine-2-carboxamide]",171 to 174 °C
17,"NC(=O)c1sc2nccc(N3CCC[S+]([O-])CC3)c2c1N (centres unmarked) [Example 34, 3-amino-4-(1-oxo-1,4-thiazepan-4-yl)thieno[2,3-b]pyridine-2-carboxamide]",111 to 119 °C
18,"NC(=O)c1sc2nccc(N3CCCC(c4ccccc4)C3)c2c1N (centres unmarked) [Example 35, 3-amino-4-(3-phenylpiperidin-1-yl)thieno[2,3-b]pyridine-2-carboxamide]",267 to 269 °C
19,"NC(=O)c1sc2nccc(N3CCCC(O)C3)c2c1N (centres unmarked) [Example 36, 3-amino-4-(3-hydroxypiperidin-1-yl)thieno[2,3-b]pyridine-2-carboxamide]",208 to 211 °C
20,"CC(C)(C)OC(=O)N1CCN(c2ccnc3sc(C(N)=O)c(N)c23)CC1 [Example 37, tert-butyl 4-[3-amino-2-(aminocarbonyl)thieno[2,3-b]pyridin-4-yl]piperazine-1-carboxylate]",198 to 203 °C
21,"CN1CCN(c2ccnc3sc(C(N)=O)c(N)c23)CC1 [Example 39, 3-amino-4-(4-methylpiperazin-1-yl)thieno[2,3-b]pyridine-2-carboxamide]",260 to 263 °C

# Next, values leading:
row,melting point,Structure (SMILES)
1,285 to 288 °C,"NC(=O)c1sc2nccc(N3CC[C@@H]4CCCC[C@H]4C3)c2c1N (relative stereo) [Example 28, 3-amino-4-(trans-perhydroisoquinolin-2-yl)thieno[2,3-b]pyridine-2-carboxamide]"
2,214 to 215 °C,"CCCNc1ccnc2sc(C(N)=O)c(N)c12 [Example 4, 3-amino-4-(propylamino)thieno[2,3-b]pyridine-2-carboxamide]"
3,238 to 240 °C,"CC(C)(C)CNc1ccnc2sc(C(N)=O)c(N)c12 [Example 6, 3-amino-4-(neopentylamino)thieno[2,3-b]pyridine-2-carboxamide]"
4,232 to 234 °C,"NC(=O)c1sc2nccc(NCCCc3ccccc3)c2c1N [Example 9, 3-amino-4-[(3-phenylpropyl)amino]thieno[2,3-b]pyridine-2-carboxamide]"
5,244 to 247 °C,"NC(=O)c1sc2nccc(NC3CCCCC3)c2c1N [Example 11, 3-amino-4-(cyclohexylamino)thieno[2,3-b]pyridine-2-carboxamide]"
6,220 to 221 °C,"NC(=O)c1sc2nccc(N3CCC(Cc4ccccc4)CC3)c2c1N [Example 18, 3-amino-4-(4-benzylpiperidin-1-yl)thieno[2,3-b]pyridine-2-carboxamide]"
7,239 to 241 °C,"NC(=O)c1sc2nccc(N3CCC(O)CC3)c2c1N [Example 19, 3-amino-4-(4-hydroxypiperidin-1-yl)thieno[2,3-b]pyridine-2-carboxamide]"
8,219 to 221 °C,"NC(=O)c1sc2nccc(N3CCCCCC3)c2c1N [Example 25, 3-amino-4-azepan-1-ylthieno[2,3-b]pyridine-2-carboxamide]"
9,222 to 224 °C,"NC(=O)c1sc2nccc(N3CCCCCCC3)c2c1N [Example 26, 3-amino-4-azocan-1-ylthieno[2,3-b]pyridine-2-carboxamide]"
10,175 to 176 °C,"NC(=O)c1sc2nccc(N3CCCOCC3)c2c1N [Example 30, 3-amino-4-(1,4-oxazepan-4-yl)thieno[2,3-b]pyridine-2-carboxamide]"
11,226 to 233 °C,"NC(=O)c1sc2nccc(N3CCC(c4ccccc4)CC3)c2c1N [Example 31, 3-amino-4-(4-phenylpiperidin-1-yl)thieno[2,3-b]pyridine-2-carboxamide]"
12,218 to 219 °C,"CCN1CCN(c2ccnc3sc(C(N)=O)c(N)c23)CC1 [Example 40, 3-amino-4-(4-ethylpiperazin-1-yl)thieno[2,3-b]pyridine-2-carboxamide]"
13,240 to 243 °C,"CC(C)N1CCN(c2ccnc3sc(C(N)=O)c(N)c23)CC1 [Example 41, 3-amino-4-(4-isopropylpiperazin-1-yl)thieno[2,3-b]pyridine-2-carboxamide]"
14,250 to 252 °C,"NC(=O)c1sc2nccc(N3CCN(c4ccccc4)CC3)c2c1N [Example 42, 3-amino-4-(4-phenylpiperazin-1-yl)thieno[2,3-b]pyridine-2-carboxamide]"
